One data set has as its target T1, human GluR4B receptor (Homo sapiens, UniProt P48058).
T1 construct: expressed in transfected cells
As to the kind of experiment: potentiation of agonist-induced excitability of human GluR4B receptor expressed in HEK 293 cells. It is filed as cell-based. The text has this: The ability of compounds of formula I to potentiate glutamate receptor-mediated response may be determined using fluorescent calcium indicator dyes (Molecular Probes, Eugene, Oreg., Fluo-3) and by measuring glutamate-evoked efflux of calcium into GluR^4 transfected HEK293 cells, as described in more detail below.
In one test, 96 well plates containing confluent monolayers of HEK cells stably expressing human GluR4B (obtained as described in European Patent Application Publication Number EP-A1-583917) are prepared. The tissue culture medium in the wells is then discarded, and the wells are each washed once with 200 μl of buffer (glucose, 10 mM, sodium chloride, 138 mM, magnesium chloride, 1 mM, potassium chloride, 5 mM, calcium chloride, 5 mM, N-[2-hydroxyethyl]piperazine-N-[2-ethanesulfonic acid], 10 mM, to pH 7.1 to 7.3). […]
Each test is then performed as follows. […] A second fluorescent reading is taken after 5 minutes incubation. 15 μl of 400 μM glutamate solution is then added to each well (final glutamate concentration 100 μM), and a third reading is taken. The activities of test compounds and cyclothiazide solutions are determined by subtracting the second from the third reading (fluorescence due to addition of glutamate in the presence or absence of test compound or cyclothiazide) and are expressed relative to enhance fluorescence produced by 100 μM cyclothiazide.
T1 sequence (P48058 21-902): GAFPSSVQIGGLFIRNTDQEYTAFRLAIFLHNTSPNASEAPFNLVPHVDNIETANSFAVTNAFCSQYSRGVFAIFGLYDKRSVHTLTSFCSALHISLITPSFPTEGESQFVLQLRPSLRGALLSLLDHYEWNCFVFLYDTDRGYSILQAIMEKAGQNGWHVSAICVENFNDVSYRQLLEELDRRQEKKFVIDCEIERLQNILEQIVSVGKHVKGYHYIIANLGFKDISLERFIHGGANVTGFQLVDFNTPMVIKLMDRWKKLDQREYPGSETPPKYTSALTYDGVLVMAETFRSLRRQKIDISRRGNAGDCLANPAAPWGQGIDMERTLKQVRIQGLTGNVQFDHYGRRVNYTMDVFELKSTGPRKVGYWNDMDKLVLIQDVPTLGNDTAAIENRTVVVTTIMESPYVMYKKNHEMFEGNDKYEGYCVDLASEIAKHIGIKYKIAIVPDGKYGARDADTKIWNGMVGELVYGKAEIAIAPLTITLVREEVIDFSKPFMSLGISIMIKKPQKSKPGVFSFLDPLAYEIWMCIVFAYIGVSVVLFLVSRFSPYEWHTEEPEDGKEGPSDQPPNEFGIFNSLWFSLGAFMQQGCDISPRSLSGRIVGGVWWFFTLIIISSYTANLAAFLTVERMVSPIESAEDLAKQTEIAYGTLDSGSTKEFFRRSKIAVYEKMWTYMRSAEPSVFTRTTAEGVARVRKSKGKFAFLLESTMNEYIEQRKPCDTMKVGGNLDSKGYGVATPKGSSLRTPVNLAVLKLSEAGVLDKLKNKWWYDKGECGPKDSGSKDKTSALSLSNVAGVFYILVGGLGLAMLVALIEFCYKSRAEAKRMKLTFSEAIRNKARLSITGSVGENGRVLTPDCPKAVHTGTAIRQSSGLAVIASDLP
As to `NS(=O)(=O)c1cc2c(cc1Cl)NC(C1CC3C=CC1C3)NS2(=O)=O` (stereo not drawn) [cyclothiazide], the “potentiation of agonist-induced excitability” value is “potentiate agonist-induced excitability”.

Tested on in a further data set: not given
Assay: not given
Compound `CCOCC(=O)Nc1ccc(C(C)CNS(=O)(=O)C(C)C)cc1` (stereo not drawn) returned a melting point of 113 to 116 °C.

For `CC(CNS(=O)(=O)C(C)C)c1ccc(NC(=O)CN2CCCCC2)cc1` (stereo not drawn), the melting point is 139 to 141 °C.

`CC(CNS(=O)(=O)C(C)C)c1ccc(-c2ccc(OCCN3CCCC3)cc2)cc1.Cl` (stereo not drawn): the melting point lay in the range of 172 to 173 °C.

`CC(CNS(=O)(=O)C(C)C)c1ccc(NC(=O)CN(C)C)cc1.O=C(O)/C=C\C(=O)O` (stereo not drawn) displayed a melting point of 120 to 122 °C.

In the case of `CC(CNS(=O)(=O)C(C)C)c1ccc(NC(=O)COc2ccccn2)cc1` (stereo not drawn), the melting point is 176 to 178 °C.

As a reminder, the melting point is the temperature of the solid-liquid transition.

Source of the values: US6693137B1, “Sulphonamide derivatives” (Eli Lilly and Company, priority 1998, dated 2004).
